Measured values reported in ChEMBL document CHEMBL1201862, “PubChem BioAssay data set” (2004).
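Dose response: 5 concentrations. Exposure: 48 h. Format: 96-well plates. Endpoint: linear interpolation; highest concentration if not reached. Abbreviation: GI50, concentration required for 50% inhibition of growth.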 Activity calls are given as the source filed them. Cut-off read from the data, not from the text of the source: active = GI50 up to about 1.1 µM and inactive = higher.

What was measured:
Assay in all cases: NCI-60 cell line screen, 48 h
A498 = test system: A498
EKVX = test system: EKVX
HCC 2998 = test system: HCC 2998
HCT-15 = test system: HCT-15
HOP-92 = test system: HOP-92
HT-29 = test system: HT-29
LOX IMVI = test system: LOX IMVI
MDA-MB-231 = test system: MDA-MB-231
MOLT-4 = test system: MOLT-4
Malme-3M = test system: Malme-3M
NCI/ADR-RES = test system: NCI/ADR-RES
OVCAR-8 = test system: OVCAR-8
RXF 393 = test system: RXF 393
SF-539 = test system: SF-539
SNB-75 = test system: SNB-75
T47D = test system: T47D
TK-10 = test system: TK-10
UACC-257 = test system: UACC-257
UO-31 = test system: UO-31
CCRF-CEM = test system: CCRF-CEM

Compound | GI50 (A498) | GI50 (EKVX) | GI50 (HCC 2998) | GI50 (HCT-15) | GI50 (HOP-92) | GI50 (HT-29) | GI50 (LOX IMVI) | GI50 (MDA-MB-231) | GI50 (MOLT-4) | GI50 (Malme-3M) | GI50 (NCI/ADR-RES) | GI50 (OVCAR-8) | GI50 (RXF 393) | GI50 (SF-539) | GI50 (SNB-75) | GI50 (T47D) | GI50 (TK-10) | GI50 (UACC-257) | GI50 (UO-31) | GI50 (CCRF-CEM)
COc1ccc2c(c1)CCc1c(-c3noc4c3CCc3cc(OC)ccc3-4)noc1-2 | > 100 µM (inactive) | 53.1 µM (inactive) | 40.4 µM (inactive) | > 100 µM | > 100 µM (inactive) | > 100 µM (inactive) | > 100 µM (inactive) | > 100 µM (inactive) | > 100 µM (inactive) | > 100 µM (inactive) | > 100 µM (inactive) | > 100 µM (inactive) | > 100 µM (inactive) | > 100 µM (inactive) | > 100 µM (inactive) | > 100 µM (inactive) | > 100 µM (inactive) | > 100 µM (inactive) | > 100 µM (inactive) | –
O=C1CC(c2cccc(Br)c2)n2cccc21 (centres undefined) | > 100 µM (inactive) | > 100 µM (inactive) | 54.7 µM (inactive) | 92.9 µM | 81.3 µM (inactive) | 93.1 µM (inactive) | > 100 µM (inactive) | > 100 µM (inactive) | 40.1 µM (inactive) | – | > 100 µM (inactive) | > 100 µM (inactive) | > 100 µM (inactive) | > 100 µM (inactive) | 35.3 µM (inactive) | 63.4 µM (inactive) | > 100 µM (inactive) | > 100 µM (inactive) | 21.5 µM (inactive) | > 100 µM (inactive)
CN(C)CCNC(=O)c1cccc2c1Oc1cccc([N+](=O)[O-])c1O2 | 15 µM (inactive) | – | 23.7 µM (inactive) | 33.8 µM | – | 15.2 µM (inactive) | – | 4.33 µM (inactive) | 4.74 µM (inactive) | 14.1 µM (inactive) | 19.1 µM (inactive) | 20.8 µM (inactive) | – | 18.2 µM (inactive) | 13.9 µM (inactive) | 14.8 µM (inactive) | 21.4 µM (inactive) | 18.5 µM (inactive) | 15.7 µM (inactive) | 29.6 µM (inactive)
COc1cc(Cn2c3c(c4cc(O)ccc42)C(=O)c2ccccc2C3=O)cc(OC)c1 | 15.4 µM (inactive) | 15.3 µM (inactive) | 6.19 µM (inactive) | 11.7 µM | 1.85 µM (inactive) | 4.1 µM (inactive) | 31.7 µM (inactive) | 5.32 µM (inactive) | 16.3 µM (inactive) | 8.22 µM (inactive) | 6 µM (inactive) | 3.55 µM (inactive) | 3.92 µM (inactive) | 2.05 µM (inactive) | – | 6.35 µM (inactive) | 11.6 µM (inactive) | 39.2 µM (inactive) | 4.32 µM (inactive) | –
CCc1nc(N)nc(N)c1-c1ccc([N+](C)(C)C)cc1 | > 100 µM (inactive) | > 100 µM (inactive) | > 100 µM (inactive) | > 100 µM | > 100 µM (inactive) | > 100 µM (inactive) | > 100 µM (inactive) | > 100 µM (inactive) | > 100 µM (inactive) | – | > 100 µM (inactive) | > 100 µM (inactive) | > 100 µM (inactive) | > 100 µM (inactive) | > 100 µM (inactive) | > 100 µM (inactive) | > 100 µM (inactive) | > 100 µM (inactive) | > 100 µM (inactive) | > 100 µM (inactive)
CN(C)CCCN1c2ccccc2CCc2cccc([N+](=O)[O-])c21 | 19.5 µM (inactive) | 49.3 µM (inactive) | 17.7 µM (inactive) | 15.6 µM | 14.4 µM (inactive) | 14.6 µM (inactive) | 16.6 µM (inactive) | 25.2 µM (inactive) | 13.7 µM (inactive) | 16.9 µM (inactive) | 16.5 µM (inactive) | 15.9 µM (inactive) | – | 17.7 µM (inactive) | 6.34 µM (inactive) | 13.7 µM (inactive) | 21.5 µM (inactive) | 20.4 µM (inactive) | 17.4 µM (inactive) | 5.38 µM (inactive)
OCCNC1=Nc2ccc(Cl)cc2C(=S)N2CSC[C@@H]12 | > 100 µM (inactive) | – | > 100 µM (inactive) | > 100 µM | > 100 µM (inactive) | > 100 µM (inactive) | – | > 100 µM (inactive) | > 100 µM (inactive) | > 100 µM (inactive) | > 100 µM (inactive) | > 100 µM (inactive) | > 100 µM (inactive) | > 100 µM (inactive) | – | > 100 µM (inactive) | – | – | > 100 µM (inactive) | –
CC(=O)c1c2c(cc3c1CC1(C3)Cc3cc4c(c(C(C)=O)c3C1)CCCC4)CCCC2 | > 100 µM (inactive) | > 100 µM (inactive) | > 100 µM (inactive) | 51.5 µM | 81.8 µM (inactive) | 63.2 µM (inactive) | > 100 µM (inactive) | > 100 µM (inactive) | 18.4 µM (inactive) | > 100 µM (inactive) | > 100 µM (inactive) | > 100 µM (inactive) | > 100 µM (inactive) | > 100 µM (inactive) | – | 62.2 µM (inactive) | > 100 µM (inactive) | 25.1 µM (inactive) | 0.104 µM (active) | 7.19 µM (inactive)
COc1cc2ccc(/C=C\[N+](=O)[O-])cc2cc1OC | 15.5 µM (inactive) | 4.3 µM (inactive) | 3.44 µM (inactive) | 3.21 µM | 4.41 µM (inactive) | 2 µM (inactive) | 1.79 µM (inactive) | 2.84 µM (inactive) | 5.09 µM (inactive) | – | 6.43 µM (inactive) | 3.12 µM (inactive) | 1.87 µM (inactive) | 1.97 µM (inactive) | 2.48 µM (inactive) | 2.92 µM (inactive) | 3.08 µM (inactive) | 3.11 µM (inactive) | 1.82 µM (inactive) | 1.44 µM (inactive)
O=C1CCC2(CC1CC(Sc1ccccc1)Sc1ccccc1)OCCO2 (centres undefined) | 74.3 µM (inactive) | 61.8 µM (inactive) | 44.1 µM (inactive) | 37.1 µM | 28 µM (inactive) | 61.4 µM (inactive) | 37.4 µM (inactive) | 83.4 µM (inactive) | 20.7 µM (inactive) | 29.6 µM (inactive) | 33.4 µM (inactive) | 42.5 µM (inactive) | 36.1 µM (inactive) | 43.1 µM (inactive) | 80.4 µM (inactive) | 22.5 µM (inactive) | 62.7 µM (inactive) | 36.8 µM (inactive) | 36.1 µM (inactive) | 31 µM (inactive)
CC(=O)OCC1OC(n2c(C)c(C)c(C)c(C#N)c2=S)C(OC(C)=O)C(OC(C)=O)C1OC(C)=O (centres undefined) | > 100 µM (inactive) | 26.2 µM (inactive) | > 100 µM (inactive) | > 100 µM | 34.1 µM (inactive) | > 100 µM (inactive) | > 100 µM (inactive) | > 100 µM (inactive) | > 100 µM (inactive) | > 100 µM (inactive) | > 100 µM (inactive) | > 100 µM (inactive) | 18.6 µM (inactive) | 69.7 µM (inactive) | 80 µM (inactive) | > 100 µM (inactive) | 46.6 µM (inactive) | > 100 µM (inactive) | 14.7 µM (inactive) | > 100 µM (inactive)
CC(=O)OC1COC(Nc2nc(N)n(C)c(=O)c2N=O)C(OC(C)=O)C1OC(C)=O (centres undefined) | > 10 µM (inactive) | > 10 µM (inactive) | > 10 µM (inactive) | – | > 10 µM (inactive) | > 10 µM (inactive) | > 10 µM (inactive) | > 10 µM (inactive) | > 10 µM (inactive) | > 10 µM (inactive) | > 10 µM (inactive) | > 10 µM (inactive) | > 10 µM (inactive) | > 10 µM (inactive) | > 10 µM (inactive) | > 10 µM (inactive) | > 10 µM (inactive) | > 10 µM (inactive) | – | > 10 µM (inactive)
O=c1cc(N2CCCC2)[nH]c(=O)n1-c1cccc(Cl)c1 | > 100 µM (inactive) | > 100 µM (inactive) | > 100 µM (inactive) | > 100 µM | > 100 µM (inactive) | > 100 µM (inactive) | > 100 µM (inactive) | > 100 µM (inactive) | > 100 µM (inactive) | > 100 µM (inactive) | > 100 µM (inactive) | > 100 µM (inactive) | > 100 µM (inactive) | > 100 µM (inactive) | > 100 µM (inactive) | > 100 µM (inactive) | > 100 µM (inactive) | > 100 µM (inactive) | – | > 100 µM (inactive)
Cc1[nH]n(-c2ncc(C(=O)O)c(=O)[nH]2)c(=O)c1CCO | > 100 µM (inactive) | > 100 µM (inactive) | > 58.9 µM (inactive) | > 100 µM | > 88.1 µM (inactive) | > 83.8 µM (inactive) | > 100 µM (inactive) | > 100 µM (inactive) | > 100 µM (inactive) | > 100 µM (inactive) | > 100 µM (inactive) | > 100 µM (inactive) | > 100 µM (inactive) | > 84.9 µM (inactive) | > 88.5 µM (inactive) | > 100 µM (inactive) | > 100 µM (inactive) | > 100 µM (inactive) | > 100 µM (inactive) | > 100 µM (inactive)
O=C1/C(=N/CCc2cc(Br)c(O)c(Br)c2)C=C(O)c2cccnc21 | 3.08 µM (inactive) | 8.47 µM (inactive) | 6.78 µM (inactive) | 2.36 µM | 7.94 µM (inactive) | 2.6 µM (inactive) | 0.634 µM (active) | 7.35 µM (inactive) | 6.75 µM (inactive) | 1.21 µM (inactive) | 4.75 µM (inactive) | 4.38 µM (inactive) | 2.24 µM (inactive) | 0.918 µM (active) | 1.13 µM (inactive) | 7.78 µM (inactive) | 3.33 µM (inactive) | 1.37 µM (inactive) | 3.12 µM (inactive) | 5.24 µM (inactive)
